Drawing on patent US5530126A, “Process for the preparation of substituted 6-(pyrazol-3yl)-1,4-benzoxazin-3-ones” (Monsanto Company, priority 1994, dated 1996), this text covers inhibition for seven compounds.

Holding throughout (type): in vivo
The subject of experiment [1] is Cocklebur. Briefly: Pre-emergence herbicide test. The following applies: Xanthium strumarium, read-out: % plant inhibition (Cobu); for inhibition at 1120 g/ha: 1.12 kg/ha; for inhibition at 11210 g/ha: 11.21 kg/ha. The procedure, abridged: (§1)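 Readout: % inhibition per species, observed ~10-14 d after seeding and treatment. Treatment: known amount of active in acetone or water onto seed bed, covered with untreated soil; greenhouse, watered from below.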

Experiment [2] has as its system Seedling johnsongrass. Briefly: Pre-emergence herbicide test. The settings on record: Sorghum halepense, read-out: % plant inhibition (Sejg); for inhibition at 1120 g/ha: 1.12 kg/ha; for inhibition at 11210 g/ha: 11.21 kg/ha. An outline of the steps:
as §1

For experiment [3], the system named is Yellow nutsedge. Put plainly: Pre-emergence herbicide test. The settings on record: Cyperus, read-out: % plant inhibition (Yens); for inhibition at 1120 g/ha: 1.12 kg/ha; for inhibition at 11210 g/ha: 11.21 kg/ha. The procedure, abridged: as §1
Experiment [4] deals with Velvetleaf. Put plainly: Pre-emergence herbicide test. The following applies: Abutilon theophrasti, read-out: % plant inhibition (Vele); for inhibition at 1120 g/ha: 1.12 kg/ha; for inhibition at 11210 g/ha: 11.21 kg/ha. The procedure, abridged: as §1
Experiment [5] relates to Indian Mustard. Briefly: Pre-emergence herbicide test. The settings on record: Brassica juncea, read-out: % plant inhibition (Inmu); for inhibition at 1120 g/ha: 1.12 kg/ha; for inhibition at 11210 g/ha: 11.21 kg/ha. An outline of the steps:
as §1

Experiment [6] relates to Annual bluegrass. Briefly: Pre-emergence herbicide test. The following applies: read-out: % plant inhibition (Anbg); for inhibition at 1120 g/ha: 1.12 kg/ha; for inhibition at 11210 g/ha: 11.21 kg/ha. An outline of the steps: as §1
The test system of experiment [7] is Downy Brome. Put plainly: Pre-emergence herbicide test. The settings on record: Bromus tectorum, read-out: % plant inhibition (Dobr); for inhibition at 1120 g/ha: 1.12 kg/ha; for inhibition at 11210 g/ha: 11.21 kg/ha. The procedure, abridged: as §1
For experiment [8], the system named is Morningglory. Put plainly: Pre-emergence herbicide test. The following applies: Ipomoea, read-out: % plant inhibition (Mogl); for inhibition at 1120 g/ha: 1.12 kg/ha; for inhibition at 11210 g/ha: 11.21 kg/ha. The procedure, abridged:
as §1

Experiment [9] has as its system Wild buckwheat. Put plainly: Pre-emergence herbicide test. The following applies: Fallopia convolvulus, read-out: % plant inhibition (Wibw); for inhibition at 1120 g/ha: 1.12 kg/ha; for inhibition at 11210 g/ha: 11.21 kg/ha. An outline of the steps:
as §1

Experiment [10] relates to Barnyardgrass. Put plainly: Pre-emergence herbicide test. The settings on record: Echinochloa crus-galli, read-out: % plant inhibition (Bygr); for inhibition at 1120 g/ha: 1.12 kg/ha; for inhibition at 11210 g/ha: 11.21 kg/ha. The procedure, abridged:
as §1

Experiment [11] concerns Cocklebur. Put plainly: Post-emergence herbicide test. The settings on record: Xanthium strumarium, read-out: % plant inhibition (Cobu); for inhibition at 1120 g/ha: 1.12 kg/ha; for inhibition at 11210 g/ha: 11.21 kg/ha. An outline of the steps:
(§2)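 Seeds or propagules are pressed into compacted topsoil, covered and sub-irrigated in the greenhouse. At two to three weeks the plants are atomizer-sprayed (170.3 kPa, 1870 L/Ha, ~0.4% emulsifier by volume). Percent inhibition relative to control is observed about 10–14 days later.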

The test system of experiment [12] is Seedling johnsongrass. Put plainly: Post-emergence herbicide test. The settings on record: Sorghum halepense, read-out: % plant inhibition (Sejg); for inhibition at 1120 g/ha: 1.12 kg/ha; for inhibition at 11210 g/ha: 11.21 kg/ha. An outline of the steps: as §2
For experiment [13], the system named is Yellow nutsedge. Put plainly: Post-emergence herbicide test. The following applies: Cyperus, read-out: % plant inhibition (Yens); for inhibition at 1120 g/ha: 1.12 kg/ha; for inhibition at 11210 g/ha: 11.21 kg/ha. An outline of the steps: as §2
The subject of experiment [14] is Velvetleaf. Put plainly: Post-emergence herbicide test. The following applies: Abutilon theophrasti, read-out: % plant inhibition (Vele); for inhibition at 1120 g/ha: 1.12 kg/ha; for inhibition at 11210 g/ha: 11.21 kg/ha. The procedure, abridged:
as §2

Experiment [15] has as its system Indian Mustard. Briefly: Post-emergence herbicide test. The following applies: Brassica juncea, read-out: % plant inhibition (Inmu); for inhibition at 1120 g/ha: 1.12 kg/ha; for inhibition at 11210 g/ha: 11.21 kg/ha. The procedure, abridged:
as §2

Experiment [16] has as its system Annual bluegrass. Briefly: Post-emergence herbicide test. The settings on record: read-out: % plant inhibition (Anbg); for inhibition at 1120 g/ha: 1.12 kg/ha; for inhibition at 11210 g/ha: 11.21 kg/ha. An outline of the steps:
as §2

Experiment [17] has as its system Downy Brome. Briefly: Post-emergence herbicide test. The following applies: Bromus tectorum, read-out: % plant inhibition (Dobr); for inhibition at 1120 g/ha: 1.12 kg/ha; for inhibition at 11210 g/ha: 11.21 kg/ha. The procedure, abridged:
as §2

The subject of experiment [18] is Morningglory. Put plainly: Post-emergence herbicide test. The settings on record: Ipomoea, read-out: % plant inhibition (Mogl); for inhibition at 1120 g/ha: 1.12 kg/ha; for inhibition at 11210 g/ha: 11.21 kg/ha. An outline of the steps:
as §2

In experiment [19] the test system is Wild buckwheat. Briefly: Post-emergence herbicide test. The settings on record: Fallopia convolvulus, read-out: % plant inhibition (Wibw); for inhibition at 1120 g/ha: 1.12 kg/ha; for inhibition at 11210 g/ha: 11.21 kg/ha. An outline of the steps: as §2
Experiment [20] deals with Barnyardgrass. Put plainly: Post-emergence herbicide test. The settings on record: Echinochloa crus-galli, read-out: % plant inhibition (Bygr); for inhibition at 1120 g/ha: 1.12 kg/ha; for inhibition at 11210 g/ha: 11.21 kg/ha. The procedure, abridged: as §2

Take `CCOC(=O)C(C)=Cc1cc(-c2nn(C)c(C(F)(F)F)c2Cl)c(F)cc1Cl` [Compound 127]: the inhibition (in general, the relative decrease from the control value, in per cent) at 1120 g/ha in [1] turned out to be 20%; in experiment [2] it was 20%; in experiment [3], 0%; in experiment [4], 100%; in [5], 90%; in experiment [6], 0%. Moreover, the inhibition at 1120 g/ha was 0% in [7]; 70% in experiment [8]; 100% in experiment [9]; 30% in [10]; 100% in [11]; 100% in experiment [12]. In addition, the inhibition at 1120 g/ha came to 20% in [13]; 100% in experiment [14]; 100% in experiment [15]; 20% in [16]; 80% in experiment [17]; 100% in experiment [18]. The inhibition at 1120 g/ha in [19] is 100%; in experiment [20] it was 60%.

As to `Cn1nc(-c2cc(CC(=O)O)c(Cl)cc2F)c(Cl)c1C(F)(F)F` [Compound 111], the inhibition at 11210 g/ha amounted to 90% in experiment [1]; 80% in [2]; 60% in experiment [3]; 100% in [4]; 100% in experiment [5]; 80% in [6]. Moreover, the inhibition at 11210 g/ha amounted to 70% in [7]; 100% in [8]; 100% in experiment [9]; 40% in experiment [10]; 100% in [11]; 20% in experiment [12]. The inhibition at 11210 g/ha in experiment [13] came out at 30%; in [14], 100%; in experiment [15], 80%; in experiment [16], 0%; in experiment [17] it was 20%; in experiment [18] it was 100%. The inhibition at 11210 g/ha in experiment [19] was 100%; in experiment [20], 60%.

As for `Cn1nc(-c2cc(O)c(Br)cc2F)c(Cl)c1C(F)(F)F` [Compound 95], the inhibition at 1120 g/ha in experiment [1] came out at 20%; in experiment [2], 50%; in experiment [3], 20%; in experiment [4] it was 90%; in [5], 80%; in [6] it was 30%. Further, the inhibition at 1120 g/ha in experiment [7] was 20%; in experiment [8] it was 40%; in experiment [9], 100%; in experiment [10], 50%; in experiment [11] it was 100%; in [12] it was 50%. The inhibition at 1120 g/ha in experiment [13] was 10%; in experiment [14] it was 100%; in [15], 70%; in experiment [16] it was 60%; in experiment [17], 40%; in experiment [18], 80%. Moreover, the inhibition at 1120 g/ha in experiment [19] was found to be 100%; in experiment [20], 80%.

With `CC(C#N)c1cc(-c2nn(C)c(C(F)(F)F)c2Cl)c(F)cc1Cl` (centres unmarked) [Compound 106], the inhibition at 1120 g/ha was 20% in experiment [1]; 80% in experiment [2]; 0% in experiment [3]; 80% in experiment [4]; 90% in experiment [5]; 30% in experiment [6]. Besides, the inhibition at 1120 g/ha in experiment [7] was 80%; in experiment [8], 60%; in [9], 100%; in [10], 80%; in experiment [11], 60%; in experiment [12], 40%. In addition, the inhibition at 1120 g/ha is 10% in experiment [13]; 100% in [14]; 60% in experiment [15]; 30% in [16]; 20% in experiment [17]; 100% in experiment [18]. The inhibition at 1120 g/ha in experiment [19] was determined as 90%; in [20], 60%.

For the compound `Cn1nc(-c2cc(CC(=O)NCCCl)c(Cl)cc2F)c(Cl)c1C(F)(F)F` [Compound 113], the inhibition at 11210 g/ha in experiment [1] is 0%; in [2], 30%; in experiment [3] it was 0%; in [4], 80%; in [5] it was 80%; in experiment [6] it was 10%. Also, the inhibition at 11210 g/ha came to 0% in [7]; 30% in experiment [8]; 40% in experiment [9]; 80% in experiment [10]; 20% in experiment [11]; 0% in [12]. The inhibition at 11210 g/ha in [13] is 0%; in experiment [14], 50%; in experiment [15] it was 0%; in experiment [16] it was 0%; in experiment [17] it was 0%; in [18], 30%. Further, the inhibition at 11210 g/ha is 20% in experiment [19] and 0% in experiment [20].

Consider `COC(=O)Cc1cc(-c2nn(C)c(C(F)(F)F)c2Cl)c(F)cc1Cl` [Compound 110], for which the inhibition at 1120 g/ha in experiment [1] worked out at 50%; in experiment [2], 0%; in experiment [3] it was 0%; in experiment [4], 100%; in experiment [5] it was 80%; in experiment [6], 0%. Moreover, the inhibition at 1120 g/ha was 0% in [7]; 70% in experiment [8]; 70% in experiment [9]; 20% in experiment [10]; 60% in experiment [11]; 40% in [12]. Further, the inhibition at 1120 g/ha in experiment [13] is 20%; in experiment [14], 100%; in experiment [15], 30%; in [16], 30%; in experiment [17], 20%; in [18], 80%. Besides, the inhibition at 1120 g/ha in experiment [19] worked out at 100%; in [20], 70%.

`CNC(=O)Cc1cc(-c2nn(C)c(C(F)(F)F)c2Cl)c(F)cc1Cl` [Compound 114]: the inhibition at 11210 g/ha in experiment [1] amounted to 70%; in experiment [2], 90%; in [3] it was 90%; in experiment [4], 100%; in experiment [5], 100%; in [6], 100%. Further, the inhibition at 11210 g/ha came to 60% in [7]; 100% in experiment [8]; 100% in [9]; 100% in [10]; 20% in [11]; 0% in experiment [12]. Further, the inhibition at 11210 g/ha in experiment [13] came out at 10%; in experiment [14] it was 50%; in experiment [15] it was 10%; in [16], 10%; in experiment [17] it was 0%; in experiment [18] it was 50%. In addition, the inhibition at 11210 g/ha in experiment [19] turned out to be 60%; in experiment [20] it was 0%.
